Drawing on PubChem BioAssay (NCI), this text covers TGI for 15 compounds.

Among the test systems are A549 NSCLC; IGROV1 ovarian; LOX IMVI melanoma; MALME-3M melanoma; OVCAR-3 ovarian; SF-268 CNS; SF-295 CNS; SN12C renal; UACC-257 melanoma.
Holding throughout (assay): NCI tumour cell line growth inhibition, 48 h

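Growth conditions: 96-well plates. Treatment: test compound, 48 hours, 5 concentrations. Analysis: linear interpolation between bracketing concentrations; unreached endpoints set to highest concentration. TGI: concentration producing complete growth inhibition.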 Where only a bound is given, the exact number is not on record here.

For `COc1ccc(/C(C#N)=C(/N)SCc2ccccc2Cl)cc1`, the TGI in the test with A549 NSCLC was above 100 µM; in the test on IGROV1 ovarian, above 100 µM; in the test on LOX IMVI melanoma, 29 µM; in the test with MALME-3M melanoma, 44.7 µM; in the test on OVCAR-3 ovarian, 24.3 µM; with SF-268 CNS, 33.2 µM. In addition, the results for the TGI with SF-295 CNS, in the test on SN12C renal and with UACC-257 melanoma were 31.5 µM, 91.3 µM and 33.7 µM, respectively.
For `O=C(O)c1cc(=O)c2cc(C(=O)c3cccs3)c(Cl)c(Cl)c2o1`, the TGI in the test with A549 NSCLC, with IGROV1 ovarian, in the test on MALME-3M melanoma, with OVCAR-3 ovarian, with SF-268 CNS and with SF-295 CNS was above 100 µM throughout. Also, the TGI in the test on SN12C renal and in the test on UACC-257 melanoma was above 100 µM throughout.
Take `CCSC(=O)C1(C)OC2CCCCC2C1=O` (configuration not stated): the TGI in the test with A549 NSCLC, in the test with IGROV1 ovarian, in the test on MALME-3M melanoma, in the test on SF-268 CNS, in the test on SN12C renal and with UACC-257 melanoma was above 100 µM each time.
With `[O-][n+]1c2cc(CN3CCOCC3)c(CN3CCOCC3)cc2[n+]([O-])c2c(O)cccc21`, the TGI was above 25.3 µM in the test with A549 NSCLC; 13 µM in the test with IGROV1 ovarian; 16.3 µM in the test on LOX IMVI melanoma; 25.3 µM with MALME-3M melanoma; 13 µM in the test on OVCAR-3 ovarian; 3.6 µM in the test with SF-268 CNS. In addition, the TGI was determined as 2.16 µM in the test on SF-295 CNS, 13 µM in the test on SN12C renal and 16.3 µM in the test on UACC-257 melanoma.
`O=C(O)C1CC2CC(=O)C1C2` (configuration not stated): the TGI in the test with A549 NSCLC, with IGROV1 ovarian, in the test on LOX IMVI melanoma, in the test with MALME-3M melanoma, in the test with OVCAR-3 ovarian and in the test with SF-268 CNS was above 100 µM each time. The TGI with SF-295 CNS, in the test on SN12C renal and in the test on UACC-257 melanoma was above 100 µM each time.
Consider `CCCCCCCCCCCCCCCCCc1nnc(N)o1`, for which the TGI in the test on A549 NSCLC, in the test with IGROV1 ovarian, in the test on LOX IMVI melanoma, in the test with MALME-3M melanoma, in the test on OVCAR-3 ovarian and in the test on SF-268 CNS was above 100 µM in each case. For the same compound, the TGI with SF-295 CNS, with SN12C renal and in the test with UACC-257 melanoma was above 100 µM each time.
For the compound `OC1c2ccccc2C2C(O)c3ccccc3C12` (configuration not stated), the TGI in the test on A549 NSCLC, in the test on IGROV1 ovarian, in the test with LOX IMVI melanoma, in the test with MALME-3M melanoma, with OVCAR-3 ovarian and in the test on SF-268 CNS was above 100 µM in each case. Moreover, the TGI with SF-295 CNS, in the test on SN12C renal and with UACC-257 melanoma was above 100 µM throughout.
As for `COC(=O)c1nc(N)nc(C(=O)OC)c1C(=O)c1ccccc1`, the TGI in the test on A549 NSCLC, in the test on IGROV1 ovarian, with LOX IMVI melanoma, with MALME-3M melanoma, in the test on OVCAR-3 ovarian and with SF-268 CNS was above 100 µM throughout. For the same compound, the TGI in the test with SF-295 CNS, in the test on SN12C renal and in the test with UACC-257 melanoma was above 100 µM in each case.
For `Nc1ccc(C2=Nc3ccccc3SC(c3ccccc3O)C2)cc1` (configuration not stated), the TGI in the test on A549 NSCLC, with IGROV1 ovarian, in the test on LOX IMVI melanoma, in the test with MALME-3M melanoma, in the test on OVCAR-3 ovarian and with SF-268 CNS was above 100 µM in each case. Besides, the TGI in the test with SF-295 CNS, in the test on SN12C renal and in the test on UACC-257 melanoma was above 100 µM throughout.
As for `O=C1NN=CN2C(=O)CCC12` (configuration not stated), the TGI in the test on A549 NSCLC, in the test with IGROV1 ovarian, with LOX IMVI melanoma, with OVCAR-3 ovarian, in the test on SF-268 CNS and in the test on SF-295 CNS was above 100 µM each time. Besides, the TGI in the test with SN12C renal and with UACC-257 melanoma was above 100 µM throughout.
As to `O=c1[nH]c2c(c3ccccc13)CCc1ccccc1-2`, the TGI in the test on A549 NSCLC, in the test with IGROV1 ovarian, in the test on MALME-3M melanoma, in the test with OVCAR-3 ovarian, in the test with SF-268 CNS and in the test on SF-295 CNS was above 100 µM in each case. The TGI in the test with SN12C renal and in the test on UACC-257 melanoma was above 100 µM in each case.
`COc1cc(/C=C\c2ccc(Cl)cc2)cc(OC)c1OC`: the TGI with A549 NSCLC is above 100 µM; with IGROV1 ovarian, above 100 µM; with LOX IMVI melanoma, above 100 µM; in the test on MALME-3M melanoma, 57.3 µM; with OVCAR-3 ovarian it was 0.437 µM; with SF-268 CNS, above 100 µM. The values for the TGI in the test on SF-295 CNS, in the test on SN12C renal and in the test on UACC-257 melanoma were 0.218 µM, above 100 µM and 39.2 µM, respectively.
As to `COC(=O)C1=C(c2ccc(Cl)cc2)C(O)N=C(NN)N1` (configuration not stated), the TGI in the test with A549 NSCLC, in the test with IGROV1 ovarian, with LOX IMVI melanoma, in the test with MALME-3M melanoma, in the test with OVCAR-3 ovarian and in the test with SF-268 CNS was above 100 µM each time. In addition, the TGI in the test on SF-295 CNS, with SN12C renal and with UACC-257 melanoma was above 100 µM each time.
In the case of `O=C1NN=C(c2ccc([N+](=O)[O-])cc2)C1n1nc(-c2ccccc2)c2ccccc2c1=O` (configuration not stated), the TGI in the test with A549 NSCLC, in the test on IGROV1 ovarian, in the test on LOX IMVI melanoma, in the test with MALME-3M melanoma, with OVCAR-3 ovarian and in the test on SF-268 CNS was above 100 µM throughout. Further, the TGI with SF-295 CNS, with SN12C renal and in the test with UACC-257 melanoma was above 100 µM in each case.
As for `CC1CC(=O)c2c(ccc3c2C(=O)c2cccc(O)c2C3=O)C1` (configuration not stated), the TGI in the test with A549 NSCLC worked out at 26.4 µM; with LOX IMVI melanoma, 16 µM; in the test with MALME-3M melanoma, 19.8 µM; in the test on OVCAR-3 ovarian, 16.5 µM; with SF-268 CNS, 31.1 µM; in the test on SF-295 CNS, 23.2 µM. The compound further registered a TGI with UACC-257 melanoma of 19.2 µM.
